Reference: patent US9499554B2, “Anti-influenza compositions and methods” (priority 2013, dated 2016)
Values after ≈ are worked out from the molar mass of the structure shown. Where two headings read alike, the source gives them in different places. Marks after values point to notes of the source that are not given here.

Legend:
[1] = system: Influenza A H5N1 VN/1203/2004 Hybrid (on H1N1 backbone); assay: microbe, parasite or virus in culture; type: cell-based
[2] = system: MA-104 cells; settings: African green monkey
[3] = system: influenza virus H3N2 (A/Victoria/3/75); assay: microbe, parasite or virus in culture; type: cell-based; settings: H3N2, MDCK; 72 hrs; read-out: Percent Inhibition of Cytopathic Effect
[4] = system: MDCK cells; settings: dog
[5] = system: influenza viruses; assay: organism not typed; type: cell-based; settings: read-out: EC50 values against the influenza viruses by visual assay
[6] = in vivo; settings: female, Balb/c, mouse, po, 100 mg/kg
[7] = system: Influenza A H3N2 Brisbane/10/2007; assay: microbe, parasite or virus in culture; type: cell-based; settings: for EC50: Influenza A virus
[8] = system: Influenza A H1N1 CA/04/2009 (Pandemic H1N1); assay: microbe, parasite or virus in culture; type: cell-based; settings: for EC50: Influenza A virus
[9] = system: H3N2 virus (A/Victoria/3/75); design: species or system Balb/C mice; settings: mouse, in vivo, po
[10] = system: MA-104 cells; settings: African green monkey; remark: listed apart in the source
[11] = system: influenza viruses; assay: organism not typed; type: cell-based; settings: read-out: EC50 values against the influenza viruses as measured by NR assay
[12] = system: MDCK cells; settings: dog; remark: listed apart in the source
[13] = system: Influenza A H1N1 CA/04/2009 (Pandemic H1N1); assay: microbe, parasite or virus in culture; type: cell-based
[14] = system: A/Vic/3/75 (H3N2); assay: microbe, parasite or virus in culture; type: cell-based; settings: Influenza A virus, H3N2, MDCK, read-out: EC50, antiviral activity in MDCK cells
[15] = system: Parainfluenza 3 14702 (MA-104 cells); assay: organism not typed; type: cell-based
[16] = system: Influenza B Florida; assay: microbe, parasite or virus in culture; type: cell-based; settings: for EC50: Influenza B virus
[17] = system: Influenza A H5N1 VN/1203/2004 Hybrid (on H1N1 backbone); assay: microbe, parasite or virus in culture; type: cell-based; remark: listed apart in the source
[18] = system: Parainfluenza 3 14702 (MA-104 cells); assay: organism not typed; type: cell-based; remark: listed apart in the source
[19] = system: Influenza B Florida; assay: microbe, parasite or virus in culture; type: cell-based
[20] = system: A/CA/27/2007 (H1N1); assay: microbe, parasite or virus in culture; type: cell-based; settings: Influenza A virus, H1N1, MDCK, read-out: EC50, antiviral activity in MDCK cells
[21] = system: H3N2 virus (A/Victoria/3/75); design: species or system Balb/C mice; settings: mouse, in vivo
[22] = system: Influenza A H3N2 Brisbane/10/2007; assay: microbe, parasite or virus in culture; type: cell-based

Nc1ncnc2c([C@@H]3N[C@H](CO)[C@@H](O)[C@H]3O)c[nH]c12 [compound 1, (2S,3S,4R,5R)-2-(4-Amino-5H-pyrrolo[3,2-d]pyrimidin-7-yl)-5-(hydroxymethyl)pyrrolidine-3,4-diol]
SI, Neutral Red Uptake Assay [1]: 130 | IC50 (50% cytotoxic dose), Neutral Red Uptake Assay [2]: 52 µg/mL (≈ 196 µM) | inhibition at 1.8 µM [3]: 1.6 ± 6.1% | inhibition at 7.8 µM [3]: 25.8 ± 4.8% | IC50 (50% cytotoxic dose), Visual CPE Assay [4]: >1000 µg/mL | EC50 [5]: 0.63 to 1.8 µg/mL (≈ 2.37 to 6.79 µM) | concentration at 0.17 hr [6]: 607 ± 61 ng/mL | concentration at 0.5 hr [6]: 910 ± 122 ng/mL | concentration at 1 hr [6]: 342 ± 122 ng/mL | concentration at 3 hr [6]: 89.7 ± 8.5 ng/mL | concentration at 5 hr [6]: 94.2 ± 6.4 ng/mL | concentration at 24 hr [6]: 50.5 ± 8.9 ng/mL | SI, Neutral Red Uptake Assay [7]: 79 | EC50 ([7]; H3N2, MDCK, read-out: EC50, antiviral activity in MDCK cells): 5.6 µg/mL (≈ 21.1 µM) | EC50 ([7]; H3N2, read-out: EC50, Neutral Red Uptake Assay): 5.6 µg/mL (≈ 21.1 µM) | SI, Neutral Red Uptake Assay [8]: 120 | EC50 ([8]; H1N1, MDCK, read-out: EC50, antiviral activity in MDCK cells): 1.8 µg/mL (≈ 6.79 µM) | EC50 ([8]; H1N1, read-out: EC50, Neutral Red Uptake Assay): 1.8 µg/mL (≈ 6.79 µM) | effect on survival and weight loss in infected mice [9]: improves the survival and weight loss | Mean day to death (Mean ± SEM) ([9]; 30 mg/kg/day): >16 days | Mean weight change (grams ± SEM) Day 9 ([9]; 30 mg/kg/day): −1.58 ± 0.32 grams | Survival/Total ([9]; 30 mg/kg/day): 10/10* | Mean day to death (Mean ± SEM) ([9]; 100 mg/kg/day): >16 days | Survival/Total ([9]; 100 mg/kg/day): 10/10* | Mean day to death (Mean ± SEM) ([9]; 300 mg/kg/day): >16 days | Mean weight change (grams ± SEM) Day 9 ([9]; 300 mg/kg/day): 0.66 ± 0.23 grams | Survival/Total ([9]; 300 mg/kg/day): 10/10* | IC50 (50% cytotoxic dose), Visual CPE Assay [10]: 100 µg/mL (≈ 377 µM) | EC50 [11]: 1.8 to 5.6 µg/mL (≈ 6.79 to 21.1 µM) | IC50 (50% cytotoxic dose), Neutral Red Uptake Assay [12]: 130 µg/mL (≈ 490 µM) | SI, Visual CPE Assay [13]: 120 | EC50 ([13]; Influenza A virus, H1N1, read-out: EC50, Visual CPE Assay): 1.8 µg/mL (≈ 6.79 µM) | EC50 [14]: 4 µg/mL (≈ 15.1 µM) | SI, Visual CPE Assay [15]: 7.1 | EC50 ([15]; MA104, read-out: EC50, Visual CPE Assay): 14 µg/mL (≈ 52.8 µM) | SI, Neutral Red Uptake Assay [16]: 38 | EC50 ([16]; B/Florida, MDCK cells, Table 2, read-out: EC50, antiviral activity in MDCK cells): 1.8 µg/mL (≈ 6.79 µM) | EC50 ([16]; Influenza B Florida, read-out: EC50, Neutral Red Uptake Assay): 1.8 µg/mL (≈ 6.79 µM) | SI, Visual CPE Assay [17]: >1600 | SI, Neutral Red Uptake Assay [18]: 52 | EC50 ([18]; MA104, read-out: EC50, Neutral Red Uptake Assay): 10 µg/mL (≈ 37.7 µM) | SI, Visual CPE Assay [19]: 290 | EC50 ([19]; Influenza B virus, Influenza B Florida, read-out: EC50, Visual CPE Assay): 1.8 µg/mL (≈ 6.79 µM) | EC50 [20]: 0.66 µg/mL (≈ 2.49 µM) | Mean day to death (Mean ± SEM) [21]: >16 days | Survival/Total [21]: 10/10* | effect on survival and weight loss in infected mice [21]: improves the survival and weight loss | SI, Visual CPE Assay [22]: 140 | EC50 ([22]; Influenza A virus, H3N2, read-out: EC50, Visual CPE Assay): 1.8 µg/mL (≈ 6.79 µM)
